The results in this text go back to patent US20250282797A1, “CRYSTALLINE FORM OF FGFR4 INHIBITOR AND USE THEREOF” (CSPC ZHONGQI PHARMACEUTICAL TECHNOLOGY (SHIJIAZHUANG) CO., …, priority 2022, published 2025).

A value given as a limit tells only on which side of the number the result lay.

One data set has as its target FGFR4 (Homo sapiens, UniProt P22455). In words: FGFR4 kinase activity inhibition assay (Caliper mobility shift). It is filed as biochemical. As for the experimental part:
1. FGFR4 Kinase Activity Inhibition Assay
The FGFR4 protein kinase activity was determined by using the Caliper mobility shift assay technology. The compound was dissolved in DMSO and then diluted with a kinase buffer, and 5 μL of the compound (10% DMSO) at a 5-fold final reaction concentration was added to a 384-well plate. 10 μL of a 2.5-fold enzyme (FGFR4) solution was added, and then the mixture was incubated at room temperature for 10 min. 10 μL of a 2.5-fold substrate (FAM-labeled peptide and ATP) solution was added. The mixture was incubated at 28° C. for 30-60 min, and then 25 μL of a terminating solution was added to terminate the reaction. Conversion rate data were read on Caliper EZ Reader II (Caliper Life Sciences). The conversion rate was converted into inhibition data date (% inhibition rate=(max−sample conversion rate)/(max−min)×100), wherein max referred to the conversion rate of the DMSO control, and min referred to the conversion rate of the enzyme-free control. The concentration and inhibition rate of the compound were used as the abscissa and ordinate to plot the curve, and the XLFit Excel Add-in version 4.3.1 software was used to fit the curve and calculate the IC50 value.

The test system of a further data set is Huh7 cell. As to the kind of experiment: Inhibition assay on Huh-7 tumor cell proliferation (CTG). In kind it is cell-based. As to conditions: Homo sapiens, 72 h or 168 h drug treatment. Here is the method:
2. Inhibition Assay of Compound on Huh-7 Tumor Cell Proliferation
An Huh7 cell suspension was adjusted to 5×10e4 cells/mL or 2×10e4 cells/mL with DMEM+2 mM Glutamine+10% FBS medium. The cell suspension (100 μL) was added to each well of a 96-well cell culture plate at a final cell concentration of 5000 cells/well (72 h) or 2000 cells/well (168 h). The test compound was dissolved in DMSO as a 10 mmol stock solution. Compounds at 200× final concentration were prepared using the stock solution and DMSO, and 3×serial dilutions were prepared and diluted 20-fold with the medium. Finally, 10 μL of the corresponding 10-fold solution was added to each well of each cell strain, a single well for each drug concentration. […] After 72 h or 168 h of drug treatment, 100 μL of a CTG solution which was pre-melted and equilibrated to room temperature was added to each well according to CTG operation instructions, and the solution was mixed well using a microplate shaker for 2 min, left to stand at room temperature for 10 min, and measured for chemiluminescence signal values using an EnSpire plate reader. The cell survival rate was calculated using the following formula: (Vsample−Vblank)/(Vvehicle control−Vblank)×100%, wherein Vsample was the reading of the drug treatment group, Vvehicle control was the average value of the solvent control group, and Vblank was the average value of the blank control well. […]

A short description of data set [1]: Pharmacokinetic study in rats. As to conditions: rat. In kind it is in vivo, SD rats. An excerpt: Test Example 6: Pharmacokinetic Study of Compound of Formula B in Rats
Assay drug: the compound of formula B obtained in Preparation Example 1.
Instrument: LC-MS/MS-13 (TQ5500, Triple quad), with the operation software of Xcalibur2.0.7 (Thermo Fisher Scientific, USA); LC-10ADvp liquid chromatography system (Shimadzu, Japan); Shimadzu LC-20AD liquid chromatography pump; Shimadzu CBM-20A system controller; Shimadzu CTO-20A column oven; and SIL-20AC autosampler (Shimadzu, Japan). Chromatographic column: Agilent Zorbax SB-CN 3.5 u 100×2.1 mm; column temperature: 40° C.; mobile phase A: 0.1% aqueous formic acid solution; mobile phase B: a 0.1% solution of formic acid in acetonitrile; flow rate: 0.60 mL/min. The gradient elution was performed as follows: from 0 to 0.5 min, the mobile phase B was increased from 1% to 90%; from 0.5 to 1.2 min, 90% of the mobile phase B was maintained; starting from 1.21 min, the mobile phase B was changed back to 1%; and elution was stopped at 1.60 min.
Animals: 6 male SD rats were supplied by Shanghai Sippe-Bk Lab Animal Co., Ltd. The body weight range was 180-220 g. After purchase, the rats were bred in the laboratory of the experimental animal center for 2 days for later use. The rats were fasted 10-14 h before administration and 4 h after administration, and given ad libitum access to water during the assay. The rats were randomly divided into two groups, with 3 rats in each group. One group was intravenously injected, and the other group was intragastrically administered.
Preparation of intragastric administration solution: the compound of formula B (4.85 mg) was precisely weighed out, and a mixed aqueous solution (9.70 mL) containing 0.5% methylcellulose and 0.4% Tween-80 was added, followed by sonication at room temperature to prepare a 0.5 mg/mL suspension. Preparation of intravenous injection solution: the compound of formula B (2.79 mg) was precisely weighed out, and DMSO (21 μL), PEG200 (2.79 mL), and normal saline (4.164 mL) were added to prepare a 0.4 mg/mL solution.
Blood was collected in the intragastric administration group about 0.25 h before administration and 0.25 h, 0.5 h, 1 h, 1.5 h, 2 h, 4 h, 6 h, 8 h, 12 h, and 24 h after administration. Blood was collected in the intravenous administration group about 0.25 h before administration and 0.083 h, 0.25 h, 0.5 h, 0.75 h, 1 h, 2 h, 4 h, 8 h, 12 h, and 24 h after administration. The blood was collected from the jugular vein or other venipuncture at 0.25 mL/time point and anticoagulated with EDTA-K2 or EDTA-K3. The collected blood was placed on the ice. After the blood samples were collected, plasma was separated by centrifugation (centrifugation conditions: 6800 g/min, 6 min, 2-8° C.). The collected plasma samples were stored in a refrigerator at −80° C. for testing prior to analysis.
The compound of the formula B was accurately weighed out and formulated into different concentrations, and quantitative analysis was performed on a mass spectrometer to establish a standard curve. The concentration of the compound of formula B in the plasma described above was then measured to obtain the concentrations of the compound of formula B at different time points. All the measured data were collected and processed by relevant software, and pharmacokinetic parameters (mainly including kinetic parameters Tmax, T1/2, Cmax, AUC0-t, etc.) were calculated by adopting a statistical moment method. […]

Where [2] appears, read: male, SD, plasma, iv, intravenously injected, 2.0 mg/kg.
The mark [3] stands for this setting: male, SD, plasma, po, intragastrically administered, 5 mg/kg.

Sequence of FGFR4 (P22455 22-802): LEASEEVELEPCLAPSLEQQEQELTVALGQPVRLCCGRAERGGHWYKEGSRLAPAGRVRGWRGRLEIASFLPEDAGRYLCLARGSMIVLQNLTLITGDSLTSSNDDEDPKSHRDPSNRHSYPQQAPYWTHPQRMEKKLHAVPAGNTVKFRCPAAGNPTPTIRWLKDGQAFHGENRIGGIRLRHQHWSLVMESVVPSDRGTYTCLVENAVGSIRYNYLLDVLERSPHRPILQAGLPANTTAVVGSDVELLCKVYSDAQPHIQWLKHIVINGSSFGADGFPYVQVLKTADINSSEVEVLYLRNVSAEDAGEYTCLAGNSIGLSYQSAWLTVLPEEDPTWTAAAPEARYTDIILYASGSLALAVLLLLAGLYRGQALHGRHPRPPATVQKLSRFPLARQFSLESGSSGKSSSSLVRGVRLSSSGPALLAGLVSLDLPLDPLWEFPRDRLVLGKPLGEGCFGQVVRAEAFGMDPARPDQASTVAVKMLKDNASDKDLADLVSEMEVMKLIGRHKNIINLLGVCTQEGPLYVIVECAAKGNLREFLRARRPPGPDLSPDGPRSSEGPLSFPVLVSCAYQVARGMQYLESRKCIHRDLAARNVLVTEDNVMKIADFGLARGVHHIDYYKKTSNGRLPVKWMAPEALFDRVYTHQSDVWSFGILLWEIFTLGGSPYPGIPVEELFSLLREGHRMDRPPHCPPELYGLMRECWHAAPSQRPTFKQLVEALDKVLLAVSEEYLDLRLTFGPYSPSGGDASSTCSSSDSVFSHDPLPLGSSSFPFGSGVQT

What is called IC50 is the concentration at which inhibition is half-maximal. The AUC(0-t) is the area under the concentration-time curve up to a stated or last time point. A high value points to high exposure. The clearance is the volume of plasma or blood freed of the substance per unit of time. Higher therefore signals a high capacity for elimination. For orientation: half-life means the time in which the quantity being followed falls by half. Read a high half-life as slow decline. Usually bioavailability stands for dose-corrected exposure relative to a reference, in per cent. By Cmax is commonly meant the peak of the concentration-time curve. `N#Cc1cnc(NC(=O)N2CCCc3cc(CN4CCN5CCC[C@H]5C4=O)c(C=O)nc32)cc1NC1CC1` [compound of formula B]: the IC50 at FGFR4 was under 5 nM. Also, the IC50 in the data set on Huh7 cell is under 10 nM. In data set [1] (setting [2]), this compound had an AUC(0-t) of 3980 ng·h/mL, a clearance of 8.63 mL/min/kg and a half-life of 1.88 h. Also, in data set [1] (male, SD, plasma, oral, intragastric 5 mg/kg vs intravenous 2.0 mg/kg, read-out: absolute bioavailability), the bioavailability turned out to be 48.6%. For the same compound, in data set [1] (setting [3]), the AUC(0-t) came out at 4840 ng·h/mL, the Cmax was 1220 ng/mL and the half-life was 1.95 h. Also, the Tmax in data set [1] (male, SD, plasma, po, intragastrically administered, 5 mg/kg, read-out: time at which the plasma concentration reached the peak value (Tmax)) stood at 2.67 h. For the same compound, in data set [1] (intravenously injected, 2.0 mg/kg), the volume distribution worked out at 0.883 L/kg.
